Laboratory results reported in the supplement of paper PMC8149375.

What was measured:
Settings in all cases: treatment: drug + dasatinib (fixed dose, not stated); 5 days
UO-31 [1] = assay: minimum viability across doses, drug + dasatinib, relative to DMSO (fraction); higher = less growth inhibition
Method: (§1)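 Primary HTS combination arm: 8 RCC cell lines treated with 8 doses (up to 10 uM) of each library drug plus a fixed dose of dasatinib (dose not stated) for 5 days; viability read by CellTiter-Glo and normalised to DMSO. GI50 was fitted with XLfit, AUC is the area under the dose-response curve, and minimum viability is the lowest fraction of DMSO viability across doses.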

SN12C [2] = assay: as above
Method: as §1

CAKI-1 [3] = assay: as above
Method: as §1

TK-10 [4] = assay: as above
Method: as §1

ACHN [5] = assay: as above
Method: as §1

A498 [6] = assay: as above
Method: as §1

769-P [7] = assay: as above
Method: as §1

786-O [8] = assay: as above
Method: as §1

UO-31 [9] = assay: AUC of dose-response viability curve, drug + dasatinib, normalised to DMSO (arbitrary (AUC of normalised viability)); higher = less growth inhibition
Method: as §1

SN12C [10] = assay: as above
Method: as §1

CAKI-1 [11] = assay: as above
Method: as §1

TK-10 [12] = assay: as above
Method: as §1

ACHN [13] = assay: as above
Method: as §1

A498 [14] = assay: as above
Method: as §1

769-P [15] = assay: as above
Method: as §1

786-O [16] = assay: as above
Method: as §1

UO-31 [17] = assay: GI50 of drug in presence of dasatinib; higher = less potent
Method: as §1

SN12C [18] = assay: as above
Method: as §1

CAKI-1 [19] = assay: as above
Method: as §1

TK-10 [20] = assay: as above
Method: as §1

ACHN [21] = assay: as above
Method: as §1

A498 [22] = assay: as above
Method: as §1

769-P [23] = assay: as above
Method: as §1

786-O [24] = assay: as above
Method: as §1

| GI50 of drug (ACHN [21]) | GI50 of drug (786-O [24]) | Compound | minimum viability across doses (UO-31 [1]) | minimum viability across doses (SN12C [2]) | minimum viability across doses (CAKI-1 [3]) | minimum viability across doses (TK-10 [4]) | minimum viability across doses (ACHN [5]) | minimum viability across doses (A498 [6]) | minimum viability across doses (769-P [7]) | minimum viability across doses (786-O [8]) | AUC of dose-response viability curve (UO-31 [9]) | AUC of dose-response viability curve (SN12C [10]) | AUC of dose-response viability curve (CAKI-1 [11]) | AUC of dose-response viability curve (TK-10 [12]) | AUC of dose-response viability curve (ACHN [13]) | AUC of dose-response viability curve (A498 [14]) | AUC of dose-response viability curve (769-P [15]) | AUC of dose-response viability curve (786-O [16]) | GI50 of drug (UO-31 [17]) | GI50 of drug (SN12C [18]) | GI50 of drug (CAKI-1 [19]) | GI50 of drug (TK-10 [20]) | GI50 of drug (A498 [22]) | GI50 of drug (769-P [23]) |
| --- | --- | --- | --- | --- | --- | --- | --- | --- | --- | --- | --- | --- | --- | --- | --- | --- | --- | --- | --- | --- | --- | --- | --- | --- |
| 2.35 µM | 4.48 µM | O=C(Nc1ccc(OC(F)(F)F)cc1)c1sccc1NCc1ccnc2ccccc12 [OSI-930] + Cc1nc(Nc2ncc(C(=O)Nc3c(C)cccc3Cl)s2)cc(N2CCN(CCO)CC2)n1 [dasatinib] | 0.0216 | 0.174 | 0.136 | 0.395 | 0.129 | 0.685 | 0.24 | 0.32 | 3.25 | 2.57 | 2.23 | 2.71 | 2.07 | 3.69 | 2.23 | 2.41 | 4.59 µM | 6.21 µM | 3.17 µM | 6.52 µM | > 10 µM | 3.09 µM |
| 0.0154 µM | 0.0316 µM | COC1=CC(c2cc3ccccc3[nH]2)=N/C1=C\c1[nH]c(C)cc1C.CS(=O)(=O)O [Obatoclax mesylate (GX15-070)] + Cc1nc(Nc2ncc(C(=O)Nc3c(C)cccc3Cl)s2)cc(N2CCN(CCO)CC2)n1 [dasatinib] | 0.00726 | 0.00176 | 0.00534 | 0.151 | 0.014 | 0.0102 | 0.0261 | 0.00545 | 2.23 | 1.38 | 1.4 | 1.58 | 0.992 | 1.76 | 1.46 | 0.949 | 0.305 µM | 0.153 µM | 0.122 µM | 0.0866 µM | 0.277 µM | 0.145 µM |
| 0.174 µM | 0.427 µM | C=CCc1cccc(/C=N/NC(=O)CN2CCN(Cc3ccccc3)CC2)c1O [PAC-1] + Cc1nc(Nc2ncc(C(=O)Nc3c(C)cccc3Cl)s2)cc(N2CCN(CCO)CC2)n1 [dasatinib] | 0.0141 | 0.0519 | 0.0701 | 0.0728 | 0.0168 | 0.169 | 0.0266 | 0.0103 | 3.14 | 2.41 | 2.07 | 2.04 | 1.49 | 3.38 | 2.17 | 1.73 | 2.01 µM | 3.46 µM | 1.35 µM | 0.764 µM | 4.84 µM | 1.42 µM |
| > 10 µM | 4.87 µM | CCCCCCCCCCCCc1ccc(S(=O)(=O)Nc2nncs2)cc1 [PHT-427] + Cc1nc(Nc2ncc(C(=O)Nc3c(C)cccc3Cl)s2)cc(N2CCN(CCO)CC2)n1 [dasatinib] | 1.13 | 0.691 | 0.656 | 0.67 | 0.47 | 0.912 | 0.631 | 0.455 | 4.28 | 2.53 | 2.43 | 2.53 | 1.87 | 3.58 | 2.43 | 1.91 | > 10 µM | > 10 µM | > 10 µM | > 10 µM | > 10 µM | > 10 µM |
